Measured values as given in US20240115557A1, “INHIBITORS OF RNA-GUIDED NUCLEASES AND USES THEREOF” (The Brigham and Women's Hospital, Inc., priority 2022, published 2024).

Biological target: T1, SaCas9 (Staphylococcus aureus, UniProt J7RUA5)
T1 sequence (J7RUA5 1-1053): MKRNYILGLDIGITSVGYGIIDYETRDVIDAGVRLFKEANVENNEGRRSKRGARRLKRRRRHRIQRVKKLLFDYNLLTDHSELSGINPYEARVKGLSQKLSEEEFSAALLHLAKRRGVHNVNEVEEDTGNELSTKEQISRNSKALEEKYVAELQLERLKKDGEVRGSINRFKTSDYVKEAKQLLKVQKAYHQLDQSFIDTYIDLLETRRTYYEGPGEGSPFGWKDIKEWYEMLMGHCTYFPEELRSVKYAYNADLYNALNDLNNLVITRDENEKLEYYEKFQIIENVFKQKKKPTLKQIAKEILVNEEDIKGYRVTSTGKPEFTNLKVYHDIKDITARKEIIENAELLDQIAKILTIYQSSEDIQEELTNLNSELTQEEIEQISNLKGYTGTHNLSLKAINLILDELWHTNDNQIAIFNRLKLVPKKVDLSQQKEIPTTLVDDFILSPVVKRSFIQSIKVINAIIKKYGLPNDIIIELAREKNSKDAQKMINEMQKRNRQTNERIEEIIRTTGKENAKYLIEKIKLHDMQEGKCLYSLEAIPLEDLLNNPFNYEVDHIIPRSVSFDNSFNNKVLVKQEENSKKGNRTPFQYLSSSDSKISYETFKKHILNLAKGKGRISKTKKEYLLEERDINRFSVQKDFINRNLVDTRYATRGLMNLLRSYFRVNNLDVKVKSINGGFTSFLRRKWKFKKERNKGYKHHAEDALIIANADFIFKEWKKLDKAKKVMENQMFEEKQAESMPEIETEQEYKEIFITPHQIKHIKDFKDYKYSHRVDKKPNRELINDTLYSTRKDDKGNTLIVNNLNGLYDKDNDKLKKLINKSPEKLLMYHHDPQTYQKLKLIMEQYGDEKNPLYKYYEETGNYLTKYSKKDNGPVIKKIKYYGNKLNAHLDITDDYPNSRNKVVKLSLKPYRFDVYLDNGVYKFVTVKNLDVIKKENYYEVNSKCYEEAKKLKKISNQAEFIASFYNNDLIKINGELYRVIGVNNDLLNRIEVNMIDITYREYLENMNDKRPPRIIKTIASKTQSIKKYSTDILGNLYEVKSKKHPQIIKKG
Test: Strand displacement assay, SaCas9 primary screen
Assay type: biochemical
Details: for Auto Zscore Rep 1 / Auto Zscore Rep 2 / Normalized Zscore Rep 1 / Normalized Zscore Rep 2: SaCas9 primary screen; for Auto Zscore Rep 1 / Normalized Zscore Rep 1: replicate 1; for Auto Zscore Rep 2 / Normalized Zscore Rep 2: replicate 2; for Normalized Zscore Rep 1 / Normalized Zscore Rep 2: weaker potential hits; for 3 sigma Hit: flag 1 = hit at 3 sigma; for 5 sigma Hit: flag 1 = hit at 5 sigma
How it was run: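 Cas9 RNP (1:1.2 protein:gRNA) pre-formed in 20 mM Tris-HCl pH 7.5, 100 mM KCl, 5 mM MgCl2, used at 10 nM (2× stock) with Alexa-Fluor 647 substrate/quencher at 1 nM/5 nM (2× stock). Reaction ran 2.5 h at 37°C; strand displacement read as fluorescence. Hits called by Z-score: 3–5σ weak, >5σ strong.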

SMILES | Auto Zscore Rep 1 | Auto Zscore Rep 2 | Normalized Zscore Rep 1 | Normalized Zscore Rep 2 | 3 sigma Hit | 5 sigma Hit
Cc1cc(C)c(S(=O)(=O)Nc2cnc(N(CC(C)C)CC(C)C)c(C(=O)O)c2)cc1C [Cpd F293-0589] | 1.656 | 0.2997 | 0.335 | 0.2929 | 1 | 1
O=C1CC(c2ccc(O)c(O)c2)c2c(nc(SCc3cccc(Cl)c3)[nH]c2=O)N1 (stereo not drawn) [Cpd D271-0012] | 0.2548 | 0.7649 | 0.1908 | 0.1893 | 1 | 1
CCOC(=O)c1c(NC(=O)CSc2nnc3cc(C)c4cccc(OC)c4n23)sc(C)c1C [Cpd D278-0687] | 0.0101 | 0.4839 | 0.1526 | 0.1495 | 1 | 1
Cc1cc(-c2nnc3sc(COc4ccccc4Cl)nn23)[nH]n1 [Cpd D727-0910] | 0.8719 | 0.05327 | 0.2028 | 0.2126 | 1 | –
Cc1nnc(NC(=O)CSc2ccc3nnc(-c4cccc(F)c4)n3n2)s1 [Cpd C742-0431] | −0.06844 | 0.2074 | 0.342 | 0.3107 | 1 | 1
Cc1nnc(NC(=O)CSc2ccc3nnc(-c4ccc(F)cc4)n3n2)s1 [Cpd C742-0312] | −0.0443 | −0.6268 | 0.1897 | 0.2665 | 1 | –
O=C1c2cccc3cccc(c23)N1S(=O)(=O)c1cccs1 [Cpd T0503-3218] | 1.379 | 1.343 | 0.1426 | 0.123 | 1 | –
Cc1ccc(C)c(SCC(=O)NC(C)C(c2ccccc2)N2CCOCC2)c1 (stereo not drawn) [Cpd T0507-0044] | 1.662 | −1.14 | 0.2923 | 0.2417 | 1 | 1
O=c1oc2cc(OCc3nnn[nH]3)c(Cl)cc2c2c1CCC2 [Cpd D715-1040] | 0.03234 | 2.456 | 0.2698 | 0.4064 | 1 | 1
O=C(CSc1ccc2ccccc2c1)NCCc1ccc(O)c(O)c1 [Cpd T0509-3636] | 0.8861 | 0.3048 | 0.4351 | 0.3562 | 1 | 1
COCCc1nnc2n1N=C(c1ccc(Cl)cc1)CS2 [Cpd D727-0342] | −0.6224 | 1.036 | 0.1633 | 0.1771 | 1 | –
COc1ccc(-c2[nH]nc3nc(-c4ccc(O)c(O)c4)cc(C(=O)O)c23)cc1 [Cpd C202-1892] | −1.82 | −0.3926 | 0.4084 | 0.4043 | 1 | 1
O=C1CC(c2ccc(O)c(O)c2)c2c(nc(SCc3ccccc3)[nH]c2=O)N1 (stereo not drawn) [Cpd D271-0007] | −1.4647 | −0.1946 | 0.1942 | 0.18 | 1 | 1
O=C(O)c1cc(NS(=O)(=O)N2CCOCC2)ccc1N1CCCC(CN2CCCC2)C1 (stereo not drawn) [Cpd F294-1002] | −0.7997 | −0.2997 | 0.2452 | 0.1681 | 1 | 1
Cc1n[nH]c2c1C(c1ccc(O)c(O)c1)CC(=O)N2 (stereo not drawn) [Cpd D361-0120] | −0.203 | −0.05734 | 0.3533 | 0.2821 | 1 | 1
CCS(=O)(=O)Nc1cnc(N(CC(C)C)CC(C)C)c(C(=O)O)c1 [Cpd F293-0563] | 1.978 | 2.223 | 0.2792 | 0.3121 | 1 | 1
CCN(Cc1ccccc1)c1ccc(NS(=O)(=O)CC)cc1C(=O)O [Cpd F294-0006] | −0.2858 | −0.7265 | 0.1668 | 0.1791 | 1 | –
CCN(Cc1ccccc1)c1ccc(NS(C)(=O)=O)cc1C(=O)O [Cpd F294-0009] | 0.01198 | 0.247 | 0.1769 | 0.155 | 1 | –
CCSc1nc2c(c(=O)[nH]1)C(c1ccc(O)c(O)c1)CC(=O)N2 (stereo not drawn) [Cpd D271-0002] | −0.5592 | 0.1026 | 0.2655 | 0.3207 | 1 | 1
COc1cccc(CNCc2cccn2-c2sc(C)c(C)c2C(=O)O)c1 [Cpd C795-1664] | 0.429 | 0.8302 | 0.3494 | 0.3285 | 1 | 1
CCN(Cc1ccccc1)c1ncc(NS(=O)(=O)CC)cc1C(=O)O [Cpd F293-0006] | 1.342 | 0.9231 | 0.3022 | 0.2957 | 1 | 1
Cc1cc(-c2nn3c(COc4ccccc4)nnc3s2)no1 [Cpd D727-0624] | 1.24 | 0.8474 | 0.2151 | 0.2232 | 1 | 1
